Measurements published in paper PMC12382614, “(Oxidopyridyl)Porphyrins of Different Lipophilicity: Photophysical Properties, ROS Production and Phototoxicity on Melanoma Cells Under CoCl2-Induced Hypoxia” (Antioxidants, 2025).
Values joined by “and” are separate entries in the source; they are usually repeats but may differ in a detail not shown here. Identical values can stand only once. Like-named read-outs stand apart in the source and are kept apart here. Blank lines part the entries; values can stand above or below the molecule they belong to.

What was measured:
[1] = cited from earlier work; for ΦISC: N-methyl porphyrin analogues; for τT (lifetime of 3PS*): N-methylated counterparts
[2] = N-methylated analogue; cited from earlier work
[3] = test system: MeWo; test: Photocytotoxicity, MTT assay; assay type: cell-based, human; conditions: for IC50: Homo sapiens, MeWo, light or radiation study
Experimental: (§1) For (photo)cytotoxicity assays, stock solutions of porphyrins were prepared in DMSO and dissolved in DMEM to the final concentrations. The porphyrin incubation time was 6h. Irradiation of the cells was with red light (λ = 643 nm) for 30 min (light dose, 3.6 J/cm^2). Nonirradiated cells were used to test the dark toxicity. All measurements were performed in three individual experiments, and the results are shown as the proliferation (%) of the cells and were calculated as IC50 values.
(§2) The cytotoxicity of (oxidopyridyl)porphyrins was assessed by an MTT assay on the HDF, MeWo and A375 cell lines after 6 h of incubation with porphyrins, without irradiation, or after 30 min of irradiation with red light (λ = 643 nm), and under conditions of normoxia or hypoxia. To induce hypoxia, 100 µM of CoCl2 was added at least two hours before the porphyrins. […] Oxygen is also one of the substrates for the activity of prolyl hydroxylases; therefore, in both cases, the result is the blockage of hydroxylation of HIF-1α and, consequently, its increase and stabilisation, which, in the case of CoCl2-induced hypoxia, can be maintained for several hours.

[4] = test system: A375; test: Photocytotoxicity, MTT assay; assay type: cell-based, human; conditions: for IC50: Homo sapiens, A-375, light or radiation study
Experimental: as §1, §2

[5] = test system: HDF; test: Photocytotoxicity, MTT assay; assay type: cell-based, human; conditions: Homo sapiens, HDF, light or radiation study
Experimental: as §1, §2

[6] = UV-Vis absorption spectra in MeOH; assay type: physicochemical
Experimental: (§3) The absorption spectra of (oxidopyridyl)porphyrins were recorded in HPLC grade MeOH on a Cary UV 60 (Agilent Technologies, Santa Clara, CA, USA), in a wavelength range of 300–700 nm. The fluorescence spectra in HPLC grade MeOH were recorded on a Cary Eclipse (Agilent Technologies) in a wavelength range of 500–800 nm after excitation at the Soret band wavelength (λ ~ 420 nm). The slits of the spectrometer were set to a bandpass of 5 nm for the excitation and 5 nm for the emission. To calculate the fluorescence quantum yields, the measurements were conducted on an FS5 Edinburgh Instruments spectrometer. Prior to taking the measurements, the solutions were purged with high-purity N2 for at least 15 min. The absorbance of the solutions was set to A < 0.1 at 405 nm and 550 nm, which settings were used for the excitation process. Emission was recorded from 550 to 800 nm, with slits set to the bandpass corresponding to 2 nm for the excitation, and 3 nm for the emission. Fluorescence quantum yield (ΦFL) was calculated in comparison to the tetraphenylporphyrin (TPP; ΦFL = 0.11 [23]) as a standard, according to Equation (S1) and following an equation previously described elsewhere.

[7] = Laser flash photolysis (LFP), triplet excited state properties; assay type: physicochemical; conditions: MeOH
Experimental: Laser flash photolysis (LFP) was performed using an LP980 transient absorption spectrometer (Edinburgh Instruments) equipped with a continuous beam (or pulse mode) Xenon lamp passing through the sample. A nanosecond Nd:YAG laser (Quantel, Q-smart 450, 5 ns pulse duration, 10 Hz, excitation wavelength 355 nm) was then used to excite the sample perpendicular to the lamp beam. The laser beam energy was adjusted to below 5 mJ. The ground state absorbance of the porphyrins in MeOH was adjusted to 0.20–0.25 at 355 nm (the laser excitation wavelength) and the solutions were purged with high-purity N2 for at least 15 min prior to taking the measurements. The samples were prepared for kq determination in an air atmosphere that was N2-purged for 15 min and O2-purged for 15 min before the measurements were taken. The ground state absorption spectra of the samples were also recorded after purging the sample with N2 or O2, and after transient absorption (TAS) measurements were taken to track the differences in every step of the measurement process to ensure that no photoproducts were formed. All measurements were performed at 25 °C in 1 cm quartz cuvettes. Laser flash photolysis was used to measure the kinetics of triplet state depopulation (τT) and triplet-triplet absorption spectra, and to calculate the intersystem crossing quantum yield (ΦISC) and quenching rate constants of triplet excited states by molecular oxygen (kq). To calculate ΦISC, the first step was the calculation of the molar absorption coefficient of the triplet state using the singlet depletion method, completing the first step according to Equation (S2). The ΦISC values were estimated by using a comparative method with TPP (ΦISC = 0.87 in toluene) as the standard. The ΦISC was calculated according to Equation (S3). Triplet excited state lifetimes were determined by fitting the triplet decays to the equation for the mixed first- and second-order decay, as previously described, and the quenching rate constant of a triplet excited state by molecular oxygen was calculated using the Stern–Volmer equation (Equation (S4)).

[8] = Fluorescence spectra and fluorescence quantum yield in MeOH; assay type: physicochemical
Experimental: as §3

[9] = Fluorescence decay by time-correlated single-photon counting (TC-SPC); assay type: physicochemical; conditions: MeOH, N2, λex 405 nm
Experimental: Time-correlated single-photon counting (TC-SPC) was used to obtain information about fluorescence decays. All measurements were performed on an FS5 Edinburgh Instruments device with a pulsed laser at 405 nm wavelength, which was used for the excitation process (pulse duration 60 ps). Fluorescence signals were monitored at 660 nm over 1023 channels, with a time increment of ≈49 ps/channel. Porphyrins were dissolved in MeOH (HPLC grade), with the absorbance adjusted to 0.1 a.u. at the excitation wavelength, and the solution was degassed with N2 for 15 min before the measurements were taken. All the decays were collected until they reached 3000 counts in the peak channel. A scattering solution, a silica gel suspension in H2O, was used to obtain the instrument response function (IRF). The histograms were analysed using a nonlinear least-squares deconvolution method via the software implemented with the instrument.

[10] = test system: HDF, MeWo and A375 cell lines; test: (Photo)cytotoxicity MTT assay, statements made for all cell lines; assay type: cell-based, human
Experimental: as §1, §2

[11] = test system: HIF-1α; test: Hypoxia induction with CoCl2, Western blot; assay type: cell-based, human; conditions: A375 cell line, 100 μM CoCl2 in DMEM, 1 and 2 h
Experimental: The cells were seeded into 12-well plates at a concentration of 10^5 cells/well. After the cells had reached full morphology (approx. 48 h), the medium was replaced with fresh medium containing cobalt(II) chloride (CoCl2) at a concentration of 100 μM, followed by incubation at 37 °C for 1 and 2 h. In the control sample, fresh medium without CoCl2 was added. After the incubation, cells were kept on ice and washed with ice-cold 1x PBS. After removing the 1x PBS, the cells were lysed with ice-cold radio-immunoprecipitation assay buffer (RIPA) buffer (50 mM Tris, 150 mM NaCl, 0.5% sodium deoxycholate, and 1% Triton X-100) and then incubated on ice for 30 min. The cells were centrifuged at 14,000 rpm at 4 °C for 10 min to separate the DNA in pellets and proteins in the supernatant. The supernatant was collected, and 4× Laemmli sample buffer (50 mM Tris pH 6.8, 10% glycerol, 2% SDS, 2% 2-mercaptoethanol, and 0.04% bromophenol blue) was added. The samples were heated at 95 °C for 10 min before separation on 10% polyacrylamide gels (SDS-PAGE). All gels were transferred to nitrocellulose membranes using the semi-dry transfer system at 100 V (Trans-Blot Turbo RTA Transfer kit, Bio Rad, Hercules, CA, USA, #1704270). […]

[12] = red light 643 nm 30 min, CoCl2-induced hypoxia
[13] = red light 643 nm 30 min, normoxia

SMILES: CC(=O)Nc1ccc(-c2c3nc(c(-c4ccc[n+](C)c4)c4ccc([nH]4)c(-c4ccc[n+](C)c4)c4nc(c(-c5ccc[n+](C)c5)c5ccc2[nH]5)C=C4)C=C3)cc1.[Cl-].[Cl-].[Cl-] [TMPyP3-CH3, 5-(4-Acetamidophenyl)-10,15,20-Tris(N-Methylpyridinium-3-Yl)Porphyrin Trichloride]
ΦISC [1]: 0.34 | τT (lifetime of 3PS*) [1]: 0.77 ms | ΦFL (fluorescence quantum yield) [2]: 0.072 | IC50 ([3]; read-out: IC50 MeWo CoCl2): > 100 µM | IC50 ([3]; read-out: IC50 MeWo No CoCl2): > 100 µM | IC50 ([4]; read-out: IC50 A375 CoCl2): > 100 µM | IC50 ([4]; read-out: IC50 A375 No CoCl2): > 100 µM | IC50 ([5]; read-out: IC50 HDF CoCl2): > 100 µM | IC50 ([5]; read-out: IC50 HDF No CoCl2): > 100 µM

ε Qx (0-0) [6]: 1900 M⁻¹ cm⁻¹ | ε Qx (1-0) [6]: 5800 M⁻¹ cm⁻¹ | ε Qy (0-0) [6]: 5200 M⁻¹ cm⁻¹ | ε Qy (1-0) [6]: 18200 M⁻¹ cm⁻¹ | ε Soret (B) [6]: 346900 M⁻¹ cm⁻¹ | λabs Qx (0-0) [6]: 645 nm | λabs Qx (1-0) [6]: 588 nm | λabs Qy (0-0) [6]: 545 nm | λabs Qy (1-0) [6]: 510 nm | λabs Soret (B) [6]: 416 nm | τT (lifetime of 3PS*) [7]: 1.1 ms | τT (lifetime of the triplet excited state) ([7]; N2-purged, 25 °C): 1100 ± 200 μs | kq (O2) (quenching rate constant of the triplet excited state by O2) ([7]; Stern–Volmer): 1.3e+09 M⁻¹ s⁻¹ | ΦISC (quantum yield of intersystem crossing) ([7]; comparative method with TPP, estimated): 0.66 | εT-T (molar absorption coefficient of the triplet state) ([7]; singlet depletion method): 47 000 M^−1cm^−1 | ΦFL (fluorescence quantum yield) ([8]; N2-purged, TPP as reference): 0.050 ± 0.002 | λFL Q(0,0) ([8]; excitation at Soret band): 648 nm | λFL Q(0,1) ([8]; excitation at Soret band): 713 nm | contribution of τ1 (% of the decay) [9]: 2% | contribution of τ2 (% of the decay) [9]: 98% | τFL, longer decay time τ2 [9]: 8.62 ± 0.02 ns and 8.62 ns | τFL, short decay time τ1 [9]: 0.82 ± 0.08 ns and 0.82 ns
SMILES: CC(=O)Nc1ccc(-c2c3nc(c(-c4ccc[n+]([O-])c4)c4ccc([nH]4)c(-c4ccc[n+]([O-])c4)c4nc(c(-c5ccc[n+]([O-])c5)c5ccc2[nH]5)C=C4)C=C3)cc1 [TOPyP3-CH3, 5-(4-Acetamidophenyl)-10,15,20-tris(1-oxido-3-pyridyl)porphyrin]
IC50 ([3]; 6 h incubation, red light 643 nm 30 min, 3.6 J/cm^2, 100 μM CoCl2 at least 2 h before porphyrin, read-out: IC50 MeWo CoCl2): > 100 µM | IC50 ([3]; 6 h incubation, red light 643 nm 30 min, 3.6 J/cm^2, normoxia, read-out: IC50 MeWo No CoCl2): > 100 µM | IC50 ([4]; 6 h incubation, red light 643 nm 30 min, 3.6 J/cm^2, 100 μM CoCl2 at least 2 h before porphyrin, read-out: IC50 A375 CoCl2): > 100 µM | IC50 ([4]; 6 h incubation, red light 643 nm 30 min, 3.6 J/cm^2, normoxia, read-out: IC50 A375 No CoCl2): > 100 µM | IC50 ([5]; 6 h incubation, red light 643 nm 30 min, 3.6 J/cm^2, 100 μM CoCl2 at least 2 h before porphyrin, read-out: IC50 HDF CoCl2): > 100 µM | IC50 ([5]; 6 h incubation, red light 643 nm 30 min, 3.6 J/cm^2, normoxia, read-out: IC50 HDF No CoCl2): > 100 µM | phototoxicity / reduction of proliferation at 1 µM ([10]; 1 µM, irradiation 643 nm, normoxia or CoCl2-induced hypoxia): did not appear to reduce the proliferation

SMILES: CCCCCCCCCCCCCCCCCC(=O)Nc1ccc(-c2c3nc(c(-c4ccc[n+](C)c4)c4ccc([nH]4)c(-c4ccc[n+](C)c4)c4nc(c(-c5ccc[n+](C)c5)c5ccc2[nH]5)C=C4)C=C3)cc1.[Cl-].[Cl-].[Cl-] [TMPyP3-C17H35, 5-(4-Octadecanamidophenyl)-10,15,20-Tris(N-Methylpyridinium-3-Yl)Porphyrin Trichloride]
ΦISC [1]: 0.38 | τT (lifetime of 3PS*) [1]: 0.74 ms | ΦFL (fluorescence quantum yield) [2]: 0.105 | IC50 ([3]; read-out: IC50 MeWo CoCl2): 0.47 ± 0.02 µM | IC50 ([3]; read-out: IC50 MeWo No CoCl2): 0.33 ± 0.04 µM | SI (IC50 (HDF) / IC50 (melanoma cells)) MeWo 100 µM CoCl2 [3, 12]: 1.0 | SI (IC50 (HDF) / IC50 (melanoma cells)) MeWo No CoCl2 [3, 13]: 1.0 | IC50 ([4]; read-out: IC50 A375 CoCl2): 0.23 ± 0.07 µM | IC50 ([4]; read-out: IC50 A375 No CoCl2): 0.15 ± 0.08 µM | SI (IC50 (HDF) / IC50 (melanoma cells)) A375 100 µM CoCl2 [4, 12]: 2.0 | SI (IC50 (HDF) / IC50 (melanoma cells)) A375 No CoCl2 [4, 13]: 2.2 | IC50 ([5]; read-out: IC50 HDF CoCl2): 0.46 ± 0.14 µM | IC50 ([5]; read-out: IC50 HDF No CoCl2): 0.33 ± 0.03 µM | IC50 ([10]; Homo sapiens, light or radiation study, read-out: IC50 in all the tested cells): ≤ 1000 nM

SMILES: [Cl-].[Cl-].[Co+2] [CoCl2, Cobalt(II) chloride]
HIF-1α protein level (Western blot, normalised to β-actin) [11]: accumulation of HIF-1α
